Source: PubChem BioAssay AID179 (DTP/NCI, 2004)
Values joined by “and” are separate entries in the source; they are usually repeats but may differ in a detail not shown here. Identical values can stand only once. Active and inactive are the calls of the source.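 The calls were made as follows: active = compounds giving half or more protection of infected cells from virus-caused growth loss, again on retest; inactive = the rest.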 Where a SMILES comes first, the peptide text is derived from it. Bridges are numbered along the chain shown (N, C = ends). Roman numbers before positions name the chains, in order. [ ]: non-standard residue; d: D form. The star is where a group is joined. hSer = N[CH](CCO)C(=O)O; Boc = CC(C)(C)OC(=O)*

Tested on: CEM cells HIV-1 protection, formazan growth assay
Assay: NCI AIDS Antiviral Assay
Details: for IC50: measured here: growth of uninfected CEM cells
Experimental: The ability of compounds to protect human CEM cells from HIV-1 infection is measured as a screen for new compounds capable of inhibiting the HIV virus. Five concentrations of drug were tested on uninfected and infected cells and cell growth was measured using a soluble formazan assay. […] Compounds that provided at least 50% protection were retested. Compounds that provided at least 50% protection on retest were listed as moderately active. Compounds that reproducibly provided 100% protection were listed as confirmed active. […] Note that the inability to provide protection could be due to toxicity.

## N#Cc1c(NC(=O)CN2CCOCC2)c(C(=O)Nc2ccccc2)n2c1CCCC2
  EC50: > 200 µM
  IC50: > 200 µM

## CSc1nc2[nH]c(=O)n(OS(=O)(=O)c3ccccc3)c(=O)c2n1Cc1ccccc1
  EC50: > 200 µM
  IC50: 105 µM

## Cc1cn(C2CC(F)C(CO)O2)c(=O)[nH]c1=O (stereo not given)
  EC50: 0.011 µM
  IC50: 2 µM

## O=C1c2cccc3cccc(c23)C(=O)N1C(Cc1ccccc1)c1ccccc1 (stereo not given)
  EC50: > 200 µM
  IC50: > 200 µM

## Cn1nc(NC(=O)c2cc(N)nn2C)cc1C(=O)Nc1ccc2cc(S(=O)(=O)O)cc(S(=O)(=O)O)c2c1
  EC50: > 200 µM
  IC50: > 200 µM

## Cn1c2ccccc2c2[nH]c3ccccc3c(=O)c21
  EC50: > 200 µM
  IC50: 13.8 µM

## O=c1c(SCc2ccc(Cl)cc2)c(N2CCCCC2)cnn1-c1ccccc1
  EC50: > 24 µM
  IC50: > 24 µM

## COC1/C=C/OC2(C)Oc3c(C)c(O)c4c(O)c(cc(OCC(=O)N5C(C)CCC5C)c4c3C2=O)NC(=O)/C(C)=C/C=C/C(C)C(O)C(C)C(O)C(C)C(OC(C)=O)C1C (stereo not given)
  EC50: > 200 µM
  IC50: 43.7 µM

## COC(=O)C(Cc1nc2ccc(Cl)cc2[nH]c1=O)C(=O)C(=O)Nc1cc(C)ccc1C (stereo not given)
  EC50: > 214 µM
  IC50: > 214 µM

## Cc1ccc2c(c1)CN1c3ccc(C)cc3CN2C1c1ccccc1O
  outcome: inactive

## CCc1n[nH]c(=O)n1N1C(=O)C2CC=CCC2C1=O (stereo not given)
  EC50: > 200 µM
  IC50: > 200 µM

## CCOC(=O)[C@H](C)OC(=O)[C@@](C)(NC(=O)c1ccccc1C(=O)OC)[C@@H]1NC=C(C(=O)OC)CS1
  EC50: > 200 µM
  IC50: 53.7 µM

## COCCC(NC(=O)C(CC(C)C)NC(=O)OC(C)(C)C)C(N)=O (stereo not drawn) (Boc-Leu-[hSer](Me)-NH2; configuration not given here)
  EC50: > 200 µM
  IC50: > 200 µM

## CC(C)CC(NC(=O)C(N)CSSCC(N)C(=O)NC(CC(C)C)C(=O)O)C(=O)O (stereo not drawn) (I: H-Cys-Leu-OH / II: H-Cys-Leu-OH; disulfide I:1-II:1; configuration not given here)
  outcome: inactive

## O=C(ON=C1c2ccccc2C(Br)C(Br)c2ccccc21)c1ccccc1 (stereo not given)
  EC50: > 200 µM
  IC50: 3.31 µM

## O=Cc1c[nH]c2nccnc12
  EC50: > 380 µM
  IC50: 372 µM

## COc1ccc2nc3c([N+](=O)[O-])ccc4c3c(c2c1)N=CN4CCCN(C)C
  EC50: 0.141 µM
  IC50: 0.468 µM

## CN(C)c1ccc(/C=C2\C=Nc3ccccc32)cc1
  EC50: > 20.9 µM
  IC50: 14.1 µM

## O=c1c2ncn(C3CC(O)C(CO)O3)c2nnn1Cc1ccccc1[N+](=O)[O-] (stereo not given)
  EC50: > 200 µM
  IC50: > 200 µM

## Cn1c(=O)cc(NNc2ccccc2)[nH]c1=O
  EC50: > 200 µM
  IC50: 3.09 µM

## NC(=O)C1Cc2cc3c(cc21)OCO3 (stereo not given)
  EC50: > 200 µM
  IC50: > 200 µM

## CC1=NN(C(=O)c2ccc([N+](=O)[O-])cc2)C(=O)C1N=Nc1ccccc1C(=O)O (stereo not given)
  outcome: inactive

## COc1cc(/C=C/C(=O)OC[C@H](Br)[C@H](OC(C)=O)c2ccc3c(c2)OCO3)cc(OC)c1OC
  EC50: > 200 µM
  IC50: 47.9 µM

## CC(=O)NC(C=O)C(O[C@H](C)C(=O)NC(C)C(=O)NC(CCC(N)=O)C(=O)OCc1ccccc1)C(O)C(O)COC(=O)CCNc1c2ccccc2nc2cccc([N+](=O)[O-])c12 (stereo not given in full)
  EC50: > 21.4 µM
  IC50: 15.1 µM

## NC(=O)N=C(N(Cc1ccccc1)Cc1ccccc1)N(Cc1ccccc1)Cc1ccccc1
  EC50: > 7.59 µM
  IC50: 2.24 µM

## CC1CN(C(=O)OCC23COC4(C)CCC(C)(OC2)N34)CC(C)O1 (stereo not given)
  EC50: > 200 µM
  IC50: > 200 µM

## Cc1nc2c(=O)[nH]c3ccccc3c2o1
  EC50: > 200 µM
  IC50: > 200 µM

## COc1ccc(-n2c(N)c(C#N)c(C#N)c2-c2cccc([N+](=O)[O-])c2)cc1
  EC50: > 200 µM
  IC50: 186 µM

## CSc1nc(=O)c2nc(-c3cccs3)c(-c3cccs3)nc2n1C
  EC50: > 100 µM
  IC50: > 100 µM

## OCC(O)C1[O][Sb][O]C1C(O)CO (stereo not given)
  EC50: > 200 µM
  IC50: > 200 µM

## CC(=O)NNc1nc(C)c(C(/C=C/c2ccccc2O)=N/N=C(N)N)s1
  EC50: > 89.1 µM
  IC50: > 89.1 µM

## COc1ccc(Br)cc1-c1cc(Br)ccc1OC
  EC50: > 200 µM
  IC50: 12.6 µM

## CCOC(=O)C(Cc1ccc([N+](=O)[O-])cc1)NC(=O)CC1c2ccccc2-c2ccccc21 (stereo not given)
  EC50: > 11.7 µM
  IC50: > 11.7 µM

## CC(=O)Oc1cc(S(=O)(=O)Nc2n[nH]c(N)n2)c(S)cc1Cl
  EC50: > 200 µM
  IC50: > 200 µM

## COc1c(C)c(C/C=C(\C)CCCC(C)CCCC(C)CCCC(C)C)c(OC)c2ccccc12 (stereo not given)
  EC50: > 200 µM
  IC50: > 200 µM

## CN(C)Cc1c[nH]c2c1S/C(=C/c1ccccc1)C2=O
  EC50: > 178 µM
  IC50: 16.6 µM

## O=C(CS(=O)(=O)c1ccccc1)c1ccccc1
  EC50: > 347 µM
  IC50: 251 µM

## NCS(=O)(=O)O
  EC50: > 200 µM
  IC50: 18.6 µM

## C=C(C)C12CC3CC/C(=N/O)C(C1)C3(N1CCOCC1)C/C2=N/O (stereo not given)
  EC50: > 200 µM
  IC50: > 200 µM

## O=C1CN(c2ccccc2)C(=O)CN1CCN1CC(=O)N(c2ccccc2)CC1=O
  EC50: > 200 µM
  IC50: > 200 µM

## COc1cc2cnc3c4cc(OCc5ccccc5)ccc4ccc3c2cc1OC
  EC50: > 6.61 µM
  IC50: > 6.61 µM

## CCN(CC)C1Oc2cc3c(cc2C(c2cc(OC)c(O)c(OC)c2)C1C)OCO3 (stereo not given)
  EC50: > 200 µM
  IC50: 1.29 µM

## O=C1CCCC/C1=C(\Br)I
  outcome: inactive

## O=C(O)c1cc(C(=C(c2cc(Cl)c(O)c(C(=O)O)c2)c2cc(Cl)c(O)c(C(=O)O)c2)c2cc(Cl)c(O)c(C(=O)O)c2)cc(Cl)c1O
  EC50: 87.1 µM
  IC50: 95.5 µM

## CCOc1ccc(/C=C\c2ccnc3ccccc23)cc1OCC
  EC50: 0.0631 µM
  IC50: 38 µM

## O=C1c2c(ccc3c2CCC3)CC12Cc1cc3c(cc1C2)CCC3
  EC50: > 200 µM
  IC50: > 200 µM

## Cc1cc([N+](=O)[O-])c(C)c2c1[nH]c1ccc(/C(CCC3CCCC3)=N\N)cc12
  EC50: > 10 µM
  IC50: > 10 µM

## O=C(O)CC[C@]1(C(=O)O)NC(C(=O)O)Cc2[nH]cnc21 (stereo not given in full)
  EC50: > 891 µM
  IC50: > 891 µM

## COc1ccc(N(c2ccc(C#N)cc2)c2ccc(C#N)cc2)cc1
  EC50: > 45.7 µM
  IC50: 33.1 µM

## Cc1nn(C(=O)c2ccc(Cl)cc2)c2c1C(c1ccccc1)SC(N)=N2 (stereo not given)
  outcome: inactive

## COc1ccc2nc3cc(Cl)ccc3c(NCCCN(Cc3cc(OC)c(OC)c(OC)c3)Cc3cc(OC)c(OC)c(OC)c3)c2c1
  outcome: inactive

## CCN(CC)c1nc(NC2CCCCC2)c2nc(N(CC)CC)nc(NC3CCCCC3)c2n1
  EC50: > 11.2 µM
  IC50: 0.537 µM

## CC(C)(C)c1cc(C(C)(C)O)c2c(c1)C(C)(C)OS2(C)Cl (stereo not given)
  EC50: > 200 µM
  IC50: 112 µM

## CCC(CO)NC(=O)Nc1ccc(S(=O)(=O)c2ccc([N+](=O)[O-])cc2)cc1 (stereo not given)
  EC50: > 200 µM
  IC50: 12 µM

## Cc1noc(C)c1-c1onc2ccc(Cl)cc12
  EC50: > 28.8 µM
  IC50: > 28.8 µM

## C#CCOCn1cnc2c(=S)nc[nH]c21
  EC50: > 9.12 µM
  IC50: > 9.12 µM

## COC1=C(C)C(=O)C2=C(C1=O)C(CO)N1C(C#N)C3CC4C(C1C2N1CCOC41)N3C (stereo not given)
  EC50: > 1.17 µM
  IC50: 0.00575 µM

## C(=N\Nc1nnc(-c2nnc(N/N=C/c3ccccc3)o2)o1)/c1ccccc1
  EC50: > 200 µM
  IC50: > 200 µM

## CCCc1cc(=O)oc2c(C=O)c(O)cc(O)c12
  EC50: > 200 µM
  IC50: 63.1 µM

## Cc1[se]c(N)nc1-c1ccccc1
  outcome: inactive

## Cc1cc2ccccc2n1CC(=O)NCC(C)C
  EC50: > 200 µM
  IC50: > 200 µM

## COc1ccccc1NC(=O)/C(=C\N1C(=O)CC(=O)NC1=S)C(C)=O
  EC50: > 200 µM
  IC50: > 200 µM

## CN1CCN(CCSc2nnc(-c3ccc4ccccc4c3)c3ccccc23)CC1
  EC50: > 219 µM
  IC50: 12.9 µM

## O=C1N(CCO)C2=CCCCC23c2[nH]c4ccccc4c2CCN13 (stereo not given)
  EC50: > 200 µM
  IC50: > 100 µM

## O=C1OC(O)C(Oc2ccc(Cl)cc2)=C1Cl (stereo not given)
  EC50: > 437 µM
  IC50: 195 µM

## CCCCCCCCCCCCCC(=O)OCC(CCS(=O)(=O)O[C@H]1CC[C@@]2(C)C(=CC[C@@H]3C2CC[C@]2(C)C(=O)CCC32)C1)OC(=O)CCCCCCCCCCCCC (stereo not given in full)
  EC50: 39.8 µM
  IC50: > 100 µM

## CCCNC(=S)N/N=C(\C)c1ccc(S(=O)(=O)N(C)c2ccccc2)cc1
  EC50: > 200 µM
  IC50: > 200 µM

## COc1ccc(-c2c(C#N)c(N)n(C3OC(CO)C(O)C(O)C3O)c(=S)c2C#N)cc1 (stereo not given)
  EC50: > 200 µM
  IC50: 95.5 µM and 129 µM

## NC(N)=N/N=C(/CCN1CCCC1)CC(c1ccccc1)c1c(O)c2ccccc2oc1=O (stereo not given)
  EC50: > 38.9 µM
  IC50: > 38.9 µM

## CC[P+](C#Cc1ccccc1)(c1ccccc1)c1ccccc1
  EC50: > 20 µM
  IC50: 0.49 µM

## N#CC(C(=O)/C(=N/NC(=O)c1ccccc1O)C(C#N)c1ccccc1)c1ccccc1 (stereo not given)
  EC50: > 589 µM
  IC50: 10.7 µM

## CC(=O)C(N=Nc1nccs1)C(C)=O
  EC50: > 200 µM
  IC50: 55 µM

## CC1=C(C(=O)Nc2c(C)cccc2C)C(c2ccc3c(c2)OCO3)C(C(=O)Nc2c(C)cccc2C)=C(C)N1
  EC50: > 25.7 µM
  IC50: > 25.7 µM

## Oc1cccc2c1N1CCN2CC1
  EC50: > 200 µM
  IC50: > 200 µM

## C=C1CN=C(Nc2ccc(Cl)cc2)S1
  EC50: > 200 µM
  IC50: 75.9 µM

## Nc1c(Br)cc2c(c1Br)Cc1cc(N=Nc3ccccc3)ccc1-2
  EC50: 51.3 µM
  IC50: 102 µM

## CCC1CC2CN3CCc4c([nH]c5ccc(OC)cc45)C(COC(=O)c4ccc(OC)c(OC)c4)(C2)C13 (stereo not given)
  outcome: inactive

## CCCCC(CC)CCC(CCC(CC)CCCC)S(=O)(=O)O (stereo not given)
  EC50: > 200 µM
  IC50: > 200 µM

## O=C(O)c1ccc(CS(=O)(=O)c2ccc(Cl)cc2)c([N+](=O)[O-])c1
  EC50: > 708 µM
  IC50: 324 µM

## Cc1ccc2c(c1)[nH]c(=S)n2C=C(C(N)=O)C(N)=O
  EC50: > 200 µM
  IC50: > 200 µM

## CC1=CC(=O)CC2(C)CC[C@@H]3C[C@]12OC3(C)C (stereo not given in full)
  outcome: inactive

## CC(=O)NC(Cc1ccccc1)C(=S)N1CCCC1 (stereo not given)
  EC50: > 912 µM
  IC50: 776 µM
